Experimental data reported in US8053453B2, “Pyrazolone compounds and thrombopoietin receptor activator” (Nissan Chemical Industries, Ltd., priority 2002, dated 2011).
Where two headings read alike, the source gives them in different places.

Biological target: T1, human TPO receptor (Homo sapiens, UniProt P40238)
T1 construct: expressed in transfected cells
T1 sequence (P40238 26-635): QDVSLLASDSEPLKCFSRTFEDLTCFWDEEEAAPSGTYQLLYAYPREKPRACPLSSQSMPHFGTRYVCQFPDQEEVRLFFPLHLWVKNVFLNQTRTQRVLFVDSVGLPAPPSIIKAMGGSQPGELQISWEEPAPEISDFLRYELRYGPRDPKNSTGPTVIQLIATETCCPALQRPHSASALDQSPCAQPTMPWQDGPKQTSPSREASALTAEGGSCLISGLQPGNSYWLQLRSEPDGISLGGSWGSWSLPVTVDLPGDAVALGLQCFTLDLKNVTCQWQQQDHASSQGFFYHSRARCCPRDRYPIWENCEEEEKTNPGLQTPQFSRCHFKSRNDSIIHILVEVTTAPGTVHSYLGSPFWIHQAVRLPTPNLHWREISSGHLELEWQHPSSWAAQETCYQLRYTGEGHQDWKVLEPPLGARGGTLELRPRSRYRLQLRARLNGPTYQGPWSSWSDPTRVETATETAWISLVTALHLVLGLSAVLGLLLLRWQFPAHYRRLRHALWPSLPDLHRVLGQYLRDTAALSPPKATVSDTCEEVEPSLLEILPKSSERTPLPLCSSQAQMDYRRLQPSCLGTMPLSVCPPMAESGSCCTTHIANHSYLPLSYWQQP
Assay: Proliferation of TPO-dependent cell line UT7/EPO-mpl, MTT method (Assay Examples 1, 3, 4)
Assay type: cell-based
Settings: UT7/EPO-mpl cells; for Emax / Efficacy (%) (maximal growth rate): value in the presence of 10 ng/ml TPO taken as 100% standard, method of Assay Example 1; for Emax: read-out: Efficacy (%) (maximal growth rate); for EC50: concentration giving 50% of the maximum cell growth observed with the same compound
Method: The reactivity of Synthetic Example 56, the compound of the present invention, with thrombopoietin (TPO) receptor was assayed using a human leukemic cell line, UT7/EPO-mpl.
UT7/EPO-mpl is a stable transformed cell line obtained by introducing into human leukemic cell line UT7/EPO a vector that induces expression of human TPO receptor (c-mp1) under control of a cytomegaloviral promoter by the method of Takatoku et al. (J. Biol. Chem., 272:7259-7263 (1997)). […] These two cell lines were subcultured in Iscove's modified Dulbecco's medium (IMDM; GIBCO) containing 10% fetal bovine serum (FBS; TRACE SCIENTIFIC) using a CO2 incubator (5% CO2, 37° C.).
The subcultured cells described above were washed twice with phosphate buffered saline (PBS) and suspended in IMDM containing 10% FBS at a cell density of 6×10^4 cells/ml. The cell suspension was transferred to a 96-well tissue culture plate (CORNING) in 100-μl aliquots. Then either TPO (PeproTech EC) or Synthetic Example 56 dissolved in dimethylsulfoxide (DMSO) was diluted 83-fold with IMDM containing 10% FBS and added to the aforementioned cell suspension in 20-μl aliquots. The suspension was incubated in a CO2 incubator (5% CO2, 37° C.) for 4 days. Cell proliferation was assayed according to the method of Mosmann et al. (J. Immunol. Methods, 65:55-63 (1983)). A 10-μl aliquot of 5 mg/ml MTT reagent (SIGMA) was added to each well of the tissue culture plate and the plate was incubated at 37° C. for 4 h. The formazan pigment generated was dissolved by adding 150 μl per well of 0.1 M HCl/isopropanol solution and the absorbance of the resulting pigment solution was measured at 550 nm with a 96-well microplate reader (BIO-RAD, M450).
The following Synthetic Examples were tested according to the method of Assay Example 1 to determine the maximal growth rate (efficacy), expressed by taking the value with human leukemic cell line UT7/EPO-mpl observed in the presence of 10 ng/ml TPO as 100% standard, and the concentration of each compound that yields a growth rate corresponding to 50% of the maximum cell growth observed with the same compound (EC50).
Synthetic Example 56, the compound of the present invention, and four compounds (Reference Synthetic Examples 1 to 4) described in a publication of international patent application (Publication No. WO01/34585, applied by SmithKline Beecham Corp.) were tested according to the method of Assay Example 1.

[1] = read-out: EC50 (ng/ml) (converted)

| Structure (SMILES) | Emax [%] | EC50 [1] [µM] | EC50 [µg/mL] | Efficacy (%) (maximal growth rate) |
| --- | --- | --- | --- | --- |
| Cc1ccc(-n2nc(C)c(C=NN3C(=O)C(=Cc4ccc(C(=O)O)cc4)SC3=S)c2O)cc1C [Reference Synthetic Example 1, 5-(4-carboxybenzylidene)-3-[(1-{3,4-dimethylphenyl}-5-hydroxy-3-methyl-1H-pyrazol-4-ylmethylene)amino]-2-thioxothiazolidin-4-one, reference compound] | 7 |  |  |  |
| CC1=NN(c2ccc(I)cc2)C(=O)C1=C(C)NNC(=O)c1ccc(O)cc1O [compound 1] |  |  | 0.0074 | 74 |
| COC(=O)c1ccc(C(=O)NNC(C)=C2C(=O)N(c3ccc(C(C)(C)C)cc3)N=C2C)cc1 [compound 4] |  |  | 0.015 | 53 |
| CC1=NN(c2ccc(C(C)(C)C)cc2)C(=O)C1=C(C)NNC(=O)c1ccc(C(=O)O)cc1 [compound 5] |  |  | 0.0034 | 86 |
| CC1=NN(c2cccc(C(F)(F)F)c2)C(=O)C1=C(C)NNC(=O)c1ccc(C(=O)O)cc1 [compound 9] |  |  | 0.0051 | 90 |
| CC1=NN(c2ccc(C(F)(F)F)cc2)C(=O)C1=C(C)NNC(=O)c1ccc(C(=O)O)cc1 [compound 11] |  |  | 0.002 | 83 |
| CC1=NN(c2ccc(C)c(C)c2)C(=O)C1=C(C)NNC(=O)c1cccc(C(=O)O)c1 [compound 13] |  |  | 0.28 | 99 |
| CC1=NN(c2ccccc2)C(=O)C1=C(C)NNC(=O)c1cccc([N+](=O)[O-])c1 [compound 14] |  |  | 0.072 | 91 |
| CC1=NN(c2ccccc2)C(=O)C1=C(C)NNC(=O)c1cc2ccccc2cc1O [compound 18] |  |  | 0.055 | 94 |
| CC1=NN(c2ccccc2)C(=O)C1=C(C)NNC(=O)c1ccc(O)cc1O [compound 19] |  |  | 0.014 | 100 |
| CC1=NN(c2ccccc2)C(=O)C1=C(C)NNC(=O)c1ccccc1[N+](=O)[O-] [compound 21] |  |  | 0.29 | 39 |
| CC1=NN(c2ccc(C(C)(C)C)cc2)C(=O)C1=C(C)NNC(=O)c1ccccc1O [compound 23] |  |  | 0.028 | 129 |
| CC1=NN(c2ccc(C(C)(C)C)cc2)C(=O)C1=C(C)NNC(=O)c1ccc(O)c(O)c1 [compound 27] |  |  | 0.0056 | 75 |
| CC1=NN(c2ccc(C(C)(C)C)cc2)C(=O)C1=C(C)NNC(=O)c1ccccc1[N+](=O)[O-] [compound 28] |  |  | 0.037 | 99 |
| CC1=NN(c2ccc(C(C)(C)C)cc2)C(=O)C1=C(C)NNC(=O)c1ccc([N+](=O)[O-])cc1 [compound 29] |  |  | 0.23 | 67 |
| CC1=NN(c2ccc(C(F)(F)F)cc2)C(=O)C1=C(C)NNC(=O)c1ccc(O)cc1 [compound 31] |  |  | 0.0052 | 63 |
| CC1=NN(c2ccc(C(F)(F)F)cc2)C(=O)C1=C(C)NNC(=O)c1cc2ccccc2cc1O [compound 32] |  |  | 0.037 | 90 |

Further lines, results first:

| Emax [%] | EC50 [1] [µM] | EC50 [µg/mL] | Efficacy (%) (maximal growth rate) | Structure (SMILES) |
| --- | --- | --- | --- | --- |
| 12 |  |  |  | Cc1ccc(-n2nc(C)c(C=NN3C(=O)C(=Cc4cccc(C(=O)O)c4)SC3=S)c2O)cc1C [Reference Synthetic Example 2, 5-(3-carboxybenzylidene)-3-[(1-{3,4-dimethylphenyl}-5-hydroxy-3-methyl-1H-pyrazol-4-ylmethylene)amino]-2-thioxothiazolidin-4-one, reference compound] |
| 7 |  |  |  | Cc1ccc(-n2nc(C)c(C=NN3CC(=O)N(c4cccc(C(=O)O)c4)C3=S)c2O)cc1C [Reference Synthetic Example 3, 3-(3-carboxyphenyl)-1-[(1-{3,4-dimethylphenyl}-5-hydroxy-3-methyl-1H-pyrazol-4-ylmethylene)amino]-2-thioxoimidazolidin-4-one, reference compound] |
| 67 | 3.02 |  |  | Cc1ccc(-n2nc(C)c(C=NN3CC(=O)N(c4ccc(C(=O)O)cc4)C3=S)c2O)cc1C [Reference Synthetic Example 4, 3-(4-carboxyphenyl)-1-[(1-{3,4-dimethylphenyl}-5-hydroxy-3-methyl-1H-pyrazol-4-ylmethylene)amino]-2-thioxoimidazolidin-4-one, reference compound] |
|  |  | 0.0063 | 89 | CC1=NN(c2ccc(C(C)(C)C)cc2)C(=O)C1=C(C)NNC(=O)c1cc(O)cc(O)c1 [compound 2] |
|  |  | 0.015 | 82 | CC1=NN(c2ccc(C)c(C)c2)C(=O)C1=C(C)NNC(=O)c1cc(O)cc(O)c1 [compound 3] |
| 64 | 0.0176 |  |  | COC(=O)c1ccc(C(=O)NNC(C)=C2C(=O)N(c3ccc(C)c(C)c3)N=C2C)cc1 [compound 6] |
|  |  | 0.0022 | 99 | CC1=NN(c2ccc(C)c(C)c2)C(=O)C1=C(C)NNC(=O)c1ccc(C(=O)O)cc1 [compound 7] |
| 52 | 0.0673 |  |  | COC(=O)c1ccc(C(=O)NNC(C)=C2C(=O)N(c3cccc(C(F)(F)F)c3)N=C2C)cc1 [compound 8] |
| 78 | 0.0434 |  |  | COC(=O)c1ccc(C(=O)NNC(C)=C2C(=O)N(c3ccc(C(F)(F)F)cc3)N=C2C)cc1 [compound 10] |
|  |  | 0.076 | 100 | CC1=NN(c2ccc(C(C)(C)C)cc2)C(=O)C1=C(C)NNC(=O)c1cccc(C(=O)O)c1 [compound 12] |
|  |  | 0.023 | 109 | CC1=NN(c2ccc(C(C)(C)C)cc2)C(=O)C1=C(C)NNC(=O)c1cccc([N+](=O)[O-])c1 [compound 15] |
|  |  | 0.061 | 58 | CC1=NN(c2ccccc2)C(=O)C1=C(C)NNC(=O)c1ccccc1O [compound 16] |
|  |  | 0.079 | 73 | CC1=NN(c2ccccc2)C(=O)C1=C(C)NNC(=O)c1ccc(O)cc1 [compound 17] |
|  |  | 0.038 | 91 | CC1=NN(c2ccccc2)C(=O)C1=C(C)NNC(=O)c1ccc(O)c(O)c1 [compound 20] |
|  |  | 0.19 | 50 | CC1=NN(c2ccccc2)C(=O)C1=C(C)NNC(=O)c1ccc([N+](=O)[O-])cc1 [compound 22] |
|  |  | 0.0072 | 89 | CC1=NN(c2ccc(C(C)(C)C)cc2)C(=O)C1=C(C)NNC(=O)c1ccc(O)cc1 [compound 24] |
|  |  | 0.2 | 54 | CC1=NN(c2ccc(C(C)(C)C)cc2)C(=O)C1=C(C)NNC(=O)c1cc2ccccc2cc1O [compound 25] |
|  |  | 0.0029 | 78 | CC1=NN(c2ccc(C(C)(C)C)cc2)C(=O)C1=C(C)NNC(=O)c1ccc(O)cc1O [compound 26] |
|  |  | 0.019 | 106 | CC1=NN(c2ccc(C(F)(F)F)cc2)C(=O)C1=C(C)NNC(=O)c1ccccc1O [compound 30] |
